From paper PMC8280112, “Substrate reduction therapy for Krabbe disease and metachromatic leukodystrophy using a novel ceramide galactosyltransferase inhibitor” (Scientific Reports, 2021)
Values joined by “and” are separate entries in the source; they are usually repeats but may differ in a detail not shown here. Identical values can stand only once. Like-named read-outs stand apart in the source and are kept apart here.

How the values were obtained:
Human CGT = target: T1, Human CGT (Homo sapiens, UniProt Q16880); assay: CGT enzyme assay (cell-lysate assay); format: biochemical; conditions: lysate of CHO cells expressing human UGT8
T1 construct: made in house; host or cells: CHO cells expressing UGT8; crude M-PER lysate
T1 sequence (Q16880 21-541): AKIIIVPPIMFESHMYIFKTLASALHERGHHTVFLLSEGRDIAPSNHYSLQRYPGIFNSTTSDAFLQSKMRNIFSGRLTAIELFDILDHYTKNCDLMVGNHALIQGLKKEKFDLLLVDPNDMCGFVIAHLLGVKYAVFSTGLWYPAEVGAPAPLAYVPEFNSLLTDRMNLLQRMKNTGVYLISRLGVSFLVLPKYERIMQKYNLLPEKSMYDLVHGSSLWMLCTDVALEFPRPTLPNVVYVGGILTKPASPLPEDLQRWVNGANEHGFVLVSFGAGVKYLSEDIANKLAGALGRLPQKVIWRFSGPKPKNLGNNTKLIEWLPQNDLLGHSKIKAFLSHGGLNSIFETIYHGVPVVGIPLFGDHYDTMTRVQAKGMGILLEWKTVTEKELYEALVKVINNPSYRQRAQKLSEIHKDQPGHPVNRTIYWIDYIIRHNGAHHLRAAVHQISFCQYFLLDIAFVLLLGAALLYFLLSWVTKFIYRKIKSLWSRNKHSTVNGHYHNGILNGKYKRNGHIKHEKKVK
Procedure: Human CGT was obtained from a cell lysate from CHO cells expressing UGT8 (made by BioMarin) prepared in M-PER with proteinase inhibitors (Sigma). Compounds, serially diluted in DMSO and Tween 80, were added to 4 µg/well of CHO/CGT cell lysate to make 20 µL final reaction volume containing 0.5% DMSO and 0.01% Tween 80 in the reaction buffer consisting of 10 µM NDB-(2R-OH)-C6 ceramide (made by BioMarin), 17.5 µM UDP-Galactose (Sigma), 35 µM of dioleoylphosphatidylcholine (DOPC), 5 mM MgCl2, 5 mM MnCl2, 1% BSA, 15 mM KCl, 1 mM EGTA, 8 mM CHAPS, 10 mM HEPES–NaOH pH 7.2. The reaction was incubated at 37 °C for 1 h and stopped by adding 80 µL of methanol:acetonitrile (1:3) with 5 µM N-dodecanoyl-NBD-galactosylceramide (Matreya) internal standard (IS) for 30 min. 200 µL H2O:ACN (1:1) was added for 5 min and then centrifuged at 4000 rpm for 38 min at RT before quantifying NDB-(2R-OH)-C6-galactosylceramide (BioMarin) by LC–MS on a Rapid Fire 360 mass spectrometer (Agilent) coupled with a API4000 + MS in electrospray ionization (ESI) negative mode (Applied Biosystems). These assay conditions were used to screen the Bio-active lipid library (Cayman Cat# 10506).

[1] = target: T2, CGT in CHO cells stably expressing human UGT8 (Homo sapiens, UniProt Q16880); assay: CGT cellular assay (intact-cell assay); format: cell-based
T2 construct: expressed in transfected cells; host or cells: CHO cells stably expressing human UGT8
T2 sequence (Q16880 21-541): T1 sequence (Q16880 21-541)
Procedure: 3 × 10^4 CHO cells stably expressing human UGT8 were seeded in a 96-well TC plate in F12K + 10% FBS (Invitrogen, qualified, Australia, 10099141) and incubated at 37 °C, 5% CO2 overnight. Media was removed and compounds, diluted in F12K + 5% FBS (0.1% DMSO final) containing 1 µM eliglustat to prevent NBD-glucosylceramide formation, were added to the cells and incubated 2 h at 37 °C. NDB-(2R-OH)-C6-ceramide (BioMarin) in F12K + 5% FBS + 11% BSA was added to a final substrate concentration of 10 µM in 1% BSA and incubated 1 h at 37 °C before extracting in methanol/0.5% acetic acid containing N-dodecanoyl-NBD-galactosylceramide IS (1 µM). After 2 h shaking, the solution was centrifuged at 4000 rpm for 30 min, and 80 µL of supernatant was transferred to 40 µL H2O, mixed and centrifuged at 4000 rpm for 10 min. NDB-(2R-OH)-C6-galactosylceramide product was quantified by a Shimadzu ultra-fast liquid chromatography system (Shimadzu) coupled to an API 4000 mass spectrometer in ESI negative mode (Applied Biosystems) using a Kinetex C18 column (50 × 2.1 mm, 2.6 µm, 100 Å) (Phenomenex) with 0.1% formic acid and acetonitrile supplemented with 0.1% formic acid.

CB1 receptor = target: T3, CB1 receptor (Homo sapiens, UniProt P21554); assay: CB1R activity (Eurofin Cerep); format: cell-based
T3 construct: purchased Eurofin Cerep ITEM G012
T3 sequence (P21554 whole entry): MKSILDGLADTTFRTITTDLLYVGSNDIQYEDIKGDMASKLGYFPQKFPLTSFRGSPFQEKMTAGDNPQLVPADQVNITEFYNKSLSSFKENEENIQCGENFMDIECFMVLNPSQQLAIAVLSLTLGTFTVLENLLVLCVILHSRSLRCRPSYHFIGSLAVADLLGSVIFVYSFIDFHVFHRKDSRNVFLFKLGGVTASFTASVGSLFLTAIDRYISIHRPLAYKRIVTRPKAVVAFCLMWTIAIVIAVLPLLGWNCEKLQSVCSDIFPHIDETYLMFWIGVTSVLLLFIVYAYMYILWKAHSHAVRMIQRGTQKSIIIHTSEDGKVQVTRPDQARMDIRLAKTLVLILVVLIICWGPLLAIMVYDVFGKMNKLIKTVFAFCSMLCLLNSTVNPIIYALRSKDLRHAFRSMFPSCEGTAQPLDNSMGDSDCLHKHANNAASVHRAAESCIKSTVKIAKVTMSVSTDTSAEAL
Procedure: CB1R activity was evaluated at Eurofin Cerep, Le Bois l'Evêque, France ITEM […].

[2] = Mouse pharmacokinetics and brain concentration; format: in vivo; conditions: C57BL/6 mice, single 20 mg/kg IP injection, plasma
Procedure: Blood was collected in K2 EDTA tube to obtain a plasma sample (2000g, 5 min at 4 °C). The brain was removed, rinsed with cold saline, dried on filter paper, weighed, and snap frozen by placing on dry ice. Brains were homogenized in 3 volumes of PBS (pH 7.4) by mini-bead-beater before sample extraction for bioanalysis. […] Pharmacokinetic parameters were calculated using WinNonlin V 8.2 statistics software (Pharsight Corporation).

Twitcher mice = assay: Twitcher mouse brain immunostaining and cytokine analysis; format: in vivo; conditions: 0.15 mg/kg IP three times per week, PND3 to PND28
Procedure: Five sections from a one in four series of sagittal brain sections from each mouse were stained on slides using a modified immunofluorescence protocol for the following antibodies—astrocytes (rabbit anti-GFAP, 1:1000, DAKO Z0334), microglia (rat anti-mouse CD68, 1:400, Bio-Rad MCA1957), and myelin basic protein (MBP) (rat anti-MBP, 1:500, Merck Millipore MAB386). Briefly, 40 µm sagittal sections were mounted on Superfrost Plus slides (Fisher Scientific), air-dried for 30 min, and blocked in 15% normal goat serum solution (Vector Labs, S-1000) in 2% TBS-T (1 × Tris Buffered Saline, pH 7.6 with 2% Triton-X100, Fisher Scientific) for 1 h. Slides were then incubated in primary antibody in 10% serum solution in 2% TBS-T for 2 h. Slides were washed three times in 1×TBS and incubated in fluorescent Alexa-Fluor labelled IgG secondary antibodies (Alexa-Fluor goat anti-rabbit 488, Invitrogen A-11008 and goat anti-rat 546, Invitrogen A-11081) in 10% serum solution in 2% TBS-T for 2 h, washed three times in 1×TBS, and incubated in a 1 × solution of TrueBlack lipofuscin autofluorescence quencher (Biotium, Fremont, CA, #23,007) in 70% ethanol for 2 min before rinsing in 1×TBS. Slides were coverslipped in fluoromount-G mounting medium with DAPI (Southern Biotech). To analyze the glial activation (GFAP-positive astrocytes + CD68-positive microglia) as well as MBP staining of punctate bodies in the cerebellar white matter, a semiautomated thresholding image analysis method was used with Image-Pro Premier software (Media Cybernetics). Briefly, this involved the collection of slide-scanned images at 5 × magnification for a one in four series of 3 sections per animal followed by demarcation of all regions (in this case the white matter of the cerebellum) of interest while maintaining the lamp intensity, video camera setup, and calibration constant throughout image capturing. Images were subsequently analyzed using Image-Pro Premier using an appropriate threshold that selected the foreground immunoreactivity above background. This threshold was then applied as a constant to all subsequent images analyzed per batch of animals and reagent used to determine the specific area of immunoreactivity for each antigen. Image densitometry for the average pixel luminance data was also gathered for MBP staining of the cerebellar white matter due to the higher density of staining. Slide-scanned images at 5 × magnification were collected for a one in forty-eight series of sections per animal followed by collecting the mean luminance data across all pixels from the regions of interest delineated using Image-Pro Premier.
Cytokine/chemokine analyses were performed on the brains from the same animals used for immunofluorescent imaging. […]

C[C@H]1N(c2ccc(Br)cc2)C(=O)N(c2ccc(Br)cc2)C1(O)c1cccc(OC(F)(F)F)c1 (stereo partly drawn) [S202]
IC50 (Human CGT): 0.015 µM | IC50 [1]: 0.002 µM and 0.0036 µM and 0.003 µM | potency as a CB1 inverse agonist, change through optimization of S221 (CB1 receptor; S202 relative to S221): reduced tenfold | IC50 (CB1 receptor; antagonist mode, read-out: CB1R antagonist IC50): 2.9 µM | IC50 (CB1 receptor; inverse agonist mode, read-out: CB1R inverse agonist IC50): 2.1 µM | IC50 (CB1 receptor; read-out: CB1 receptor IC50): 3 µM | AUC(0-inf) [2]: 83.8 µg·h/mL | AUC(0-t) [2]: 59.4 µg·h/mL | Cmax [2]: 8.5 µg/mL | Tmax [2]: 1 h | half-life ([2]; read-out: Terminal t1/2 (converted)): 12.2 h | CD68-positive macrophages in brain sections (Twitcher mice): trend toward reduction | GROA level in brain homogenates (Twitcher mice): reduced the levels | MCP-1 level in brain homogenates (Twitcher mice): reduced the levels | marker of astrocytosis (GFAP) in brain sections (Twitcher mice): trend toward reduction
